# Assay results from PubChem BioAssay AID248 (DTP/NCI, 2004).
# Several values for one entry are separate records, joined by “and”; a condition that tells them apart may be missing. Equal values may be shown once. Inconclusive results and toxic doses are left out.
# Test system: L1210 leukemia ip in BDF1 mice, survival T/C
# Assay: NCI In Vivo Anticancer Drug Screen. Data for tumor model L1210 Leukemia (intraperitoneal) in B6D2F1 (BDF1) mice
# Settings: endpoint: mean survival time, higher = longer survival
# In short: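 Ratio derived from survival: compound-dosed mice over vehicle-dosed mice, all bearing a transplantable tumor.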
# [1] = dose: 100.0 mg/kg/injection, schedule: Q04DX003 (ip), vehicle: Klucel (hydroxypropylcellulose) (HPC)
# [2] = dose: 200.0 mg/kg/injection, schedule: Q04DX003 (ip), vehicle: Klucel (hydroxypropylcellulose) (HPC)
# [3] = dose: 100.0 mg/kg/injection, schedule: Q04DX003 (ip), vehicle: saline
# [4] = dose: 100.0 mg/kg/injection, schedule: Q01DX001 (ip), vehicle: saline
# [5] = dose: 200.0 mg/kg/injection, schedule: Q01DX001 (ip), vehicle: saline
# [6] = dose: 400.0 mg/kg/injection, schedule: Q01DX001 (ip), vehicle: saline
# [7] = dose: 100.0 mg/kg/injection, schedule: Q01DX009 (ip), vehicle: saline
structure (smiles),measurement,setting,value
COC(=O)C(N)Cc1ccc(OC)c(N(CCCl)CCCl)c1 (stereo not drawn),T/C,"dose: 0.01 mg/kg/injection, schedule: Q01DX009 (ip), vehicle: saline",106 % of control
same,T/C,"dose: 0.02 mg/kg/injection, schedule: Q01DX009 (ip), vehicle: saline",116 % of control
same,T/C,"dose: 0.05 mg/kg/injection, schedule: Q01DX009 (ip), vehicle: saline",110 % of control
same,T/C,"dose: 0.1 mg/kg/injection, schedule: Q01DX009 (ip), vehicle: saline",121 % of control
same,T/C,"dose: 0.3 mg/kg/injection, schedule: Q01DX009 (ip), vehicle: saline",155 % of control
same,T/C,"dose: 0.62 mg/kg/injection, schedule: Q01DX001 (ip), vehicle: saline",106 % of control
same,T/C,"dose: 1.25 mg/kg/injection, schedule: Q01DX001 (ip), vehicle: saline",98 % of control
same,T/C,"dose: 1.5 mg/kg/injection, schedule: Q01DX001 (ip), vehicle: carboxymethylcellulose (CMC)",115 % of control
same,T/C,"dose: 1.5 mg/kg/injection, schedule: Q01DX009 (ip), vehicle: saline",151 % of control
same,T/C,"dose: 2.5 mg/kg/injection, schedule: Q01DX001 (ip), vehicle: saline",106 % of control and 122 % of control
same,T/C,"dose: 2.9 mg/kg/injection, schedule: Q01DX001 (ip), vehicle: saline",105 % of control
same,T/C,"dose: 2.9 mg/kg/injection, schedule: Q01DX009 (ip), vehicle: saline",230 % of control
same,T/C,"dose: 3.0 mg/kg/injection, schedule: Q01DX001 (ip), vehicle: carboxymethylcellulose (CMC)",120 % of control
same,T/C,"dose: 3.0 mg/kg/injection, schedule: Q01DX009 (ip), vehicle: saline",123 % of control
same,T/C,"dose: 4.4 mg/kg/injection, schedule: Q01DX001 (ip), vehicle: saline",104 % of control
same,T/C,"dose: 4.4 mg/kg/injection, schedule: Q01DX009 (ip), vehicle: saline",108 % of control
same,T/C,"dose: 5.0 mg/kg/injection, schedule: Q01DX001 (ip), vehicle: saline",111 % of control and 124 % of control
same,T/C,"dose: 6.0 mg/kg/injection, schedule: Q01DX001 (ip), vehicle: carboxymethylcellulose (CMC)",108 % of control
same,T/C,"dose: 6.6 mg/kg/injection, schedule: Q01DX001 (ip), vehicle: saline",109 % of control
same,T/C,"dose: 10.0 mg/kg/injection, schedule: Q01DX001 (ip), vehicle: saline",107 % of control
O=c1[nH]cnc2nc(-c3ccc(Cl)cc3)c(-c3ccc(Cl)cc3)nc12,T/C,"dose: 50.0 mg/kg/injection, schedule: Q01DX009 (ip), vehicle: Klucel (hydroxypropylcellulose) (HPC)",92 % of control
same,T/C,"dose: 100.0 mg/kg/injection, schedule: Q01DX009 (ip), vehicle: Klucel (hydroxypropylcellulose) (HPC)",103 % of control
same,T/C,"dose: 200.0 mg/kg/injection, schedule: Q01DX009 (ip), vehicle: Klucel (hydroxypropylcellulose) (HPC)",92 % of control
Cc1ccc(NC(=O)OCCOc2c(C(C)C)cccc2C(C)C)c([N+](=O)[O-])c1,T/C,"dose: 100.0 mg/kg/injection, schedule: Q04DX002 (ip), vehicle: Klucel (hydroxypropylcellulose) (HPC)",94 % of control
same,T/C,"dose: 200.0 mg/kg/injection, schedule: Q04DX002 (ip), vehicle: Klucel (hydroxypropylcellulose) (HPC)",96 % of control
same,T/C,"dose: 400.0 mg/kg/injection, schedule: Q04DX002 (ip), vehicle: Klucel (hydroxypropylcellulose) (HPC)",92 % of control
N#CC(C#N)=Cc1ccsc1,T/C,"dose: 6.25 mg/kg/injection, schedule: Q01DX009 (ip), vehicle: Klucel (hydroxypropylcellulose) (HPC)",102 % of control
same,T/C,"dose: 12.5 mg/kg/injection, schedule: Q01DX009 (ip), vehicle: Klucel (hydroxypropylcellulose) (HPC)",94 % of control
same,T/C,"dose: 12.5 mg/kg/injection, schedule: Q04DX003 (ip), vehicle: Klucel (hydroxypropylcellulose) (HPC)",102 % of control
same,T/C,"dose: 25.0 mg/kg/injection, schedule: Q01DX009 (ip), vehicle: Klucel (hydroxypropylcellulose) (HPC)",100 % of control
same,T/C,"dose: 25.0 mg/kg/injection, schedule: Q04DX003 (ip), vehicle: Klucel (hydroxypropylcellulose) (HPC)",96 % of control
c1ccc(CNc2ncnc3c2ncn3Cc2ccccc2)cc1,T/C,"dose: 100.0 mg/kg/injection, schedule: Q01DX001 (ip), vehicle: Klucel (hydroxypropylcellulose) (HPC)",94 % of control
same,T/C,"dose: 200.0 mg/kg/injection, schedule: Q01DX001 (ip), vehicle: Klucel (hydroxypropylcellulose) (HPC)",104 % of control
same,T/C,"dose: 400.0 mg/kg/injection, schedule: Q01DX001 (ip), vehicle: Klucel (hydroxypropylcellulose) (HPC)",98 % of control
FC(F)(F)c1cccc(P(c2cccc(C(F)(F)F)c2)c2ccccc2C(F)(F)F)c1,T/C,"dose: 100.0 mg/kg/injection, schedule: Q04DX003 (ip), vehicle: saline with Tween-80",95 % of control
same,T/C,"dose: 400.0 mg/kg/injection, schedule: Q04DX003 (ip), vehicle: saline with Tween-80",87 % of control
COc1cccc2c1CCc1cc3c(nc1-2)-c1cccc(OC)c1CC3,T/C,[1],103 % of control
same,T/C,[2],100 % of control
same,T/C,"dose: 400.0 mg/kg/injection, schedule: Q04DX003 (ip), vehicle: Klucel (hydroxypropylcellulose) (HPC)",101 % of control
O=C1OC(=O)C2C3C=CC(CC3)C12 (stereo not drawn),T/C,[1],96 % of control
same,T/C,[3],98 % of control
same,T/C,[2],100 % of control
same,T/C,"dose: 200.0 mg/kg/injection, schedule: Q04DX003 (ip), vehicle: saline",98 % of control
OCc1ncn[nH]1,T/C,[4],102 % of control
same,T/C,[5],95 % of control
same,T/C,[6],107 % of control
CCOC(=O)CCCCCCCCCC[N+](CC)(CC)CC(=O)c1ccc(NC(C)=O)cc1,T/C,"dose: 75.0 mg/kg/injection, schedule: Q01DX001 (ip), vehicle: other",96 % of control
same,T/C,"dose: 150.0 mg/kg/injection, schedule: Q01DX001 (ip), vehicle: other",101 % of control
Cc1ccc2nc(CCl)[nH]c2c1,T/C,"dose: 50.0 mg/kg/injection, schedule: Q01DX001 (ip), vehicle: saline",119 % of control
same,T/C,[4],113 % of control
same,T/C,[5],107 % of control
Cc1nc(N)nc(N)c1Oc1ccc(Cl)cc1,T/C,"dose: 30.0 mg/kg/injection, schedule: Q01DX Z (ip), vehicle: saline",96 % of control
same,T/C,"dose: 60.0 mg/kg/injection, schedule: Q01DX Z (ip), vehicle: saline",98 % of control
same,T/C,"dose: 120.0 mg/kg/injection, schedule: Q01DX Z (ip), vehicle: saline",102 % of control
CC/C=C(CC)/C(=C/CC)CC,T/C,[4],97 % of control
same,T/C,[7],98 % of control
same,T/C,[5],105 % of control
same,T/C,"dose: 200.0 mg/kg/injection, schedule: Q01DX009 (ip), vehicle: saline",96 % of control
same,T/C,[6],102 % of control
CCOC(=O)C(CCCCC(NC(C)=O)(C(=O)OCC)C(=O)OCC)(NC(C)=O)C(=O)OCC,T/C,"dose: 100.0 mg/kg/injection, schedule: Q01DX009 (ip), vehicle: saline with Tween-80",92 % of control
same,T/C,"dose: 200.0 mg/kg/injection, schedule: Q01DX009 (ip), vehicle: saline with Tween-80",94 % of control
same,T/C,"dose: 400.0 mg/kg/injection, schedule: Q01DX009 (ip), vehicle: saline with Tween-80",92 % of control
O=C(O)c1ccccc1-c1ccccc1C(=O)Nc1ccc2c(c1)Cc1cc(F)ccc1-2,T/C,"dose: 75.0 mg/kg/injection, schedule: Q01DX001 (ip), vehicle: carboxymethylcellulose (CMC)",91 % of control
same,T/C,"dose: 150.0 mg/kg/injection, schedule: Q01DX001 (ip), vehicle: carboxymethylcellulose (CMC)",98 % of control
CCNCCCN,T/C,"dose: 25.0 mg/kg/injection, schedule: Q01DX009 (ip), vehicle: saline",97 % of control
same,T/C,"dose: 25.0 mg/kg/injection, schedule: Q04DX003 (ip), vehicle: saline",115 % of control
same,T/C,"dose: 50.0 mg/kg/injection, schedule: Q01DX009 (ip), vehicle: saline",101 % of control
same,T/C,"dose: 50.0 mg/kg/injection, schedule: Q04DX003 (ip), vehicle: saline",115 % of control
same,T/C,[7],103 % of control
same,T/C,[3],93 % of control and 103 % of control
CCCCCCCC(=O)N1CCOCC1,T/C,"dose: 50.0 mg/kg/injection, schedule: Q04DX003 (ip), vehicle: saline with Tween-80",96 % of control
CC12CC(=O)OC1(C)C1CCC2C1 (stereo not drawn),T/C,"dose: 6.25 mg/kg/injection, schedule: Q01DX009 (ip), vehicle: acetone",111 % of control
same,T/C,"dose: 6.25 mg/kg/injection, schedule: Q04DX003 (ip), vehicle: acetone",101 % of control
same,T/C,"dose: 12.5 mg/kg/injection, schedule: Q01DX001 (ip), vehicle: acetone",96 % of control
same,T/C,"dose: 12.5 mg/kg/injection, schedule: Q01DX009 (ip), vehicle: acetone",92 % of control
same,T/C,"dose: 12.5 mg/kg/injection, schedule: Q04DX003 (ip), vehicle: acetone",101 % of control
same,T/C,"dose: 25.0 mg/kg/injection, schedule: Q01DX001 (ip), vehicle: acetone",112 % of control
same,T/C,"dose: 25.0 mg/kg/injection, schedule: Q04DX003 (ip), vehicle: acetone",97 % of control
